From patent US8076338B2, “Kinase modulators and methods of use” (Exelixis, Inc., priority 2004, dated 2011)
Where two headings read alike, the source gives them in different places.

Key:
AktK = AktK (Homo sapiens, UniProt P31749); assay: Luciferase-coupled chemiluminescence kinase assay (ATP consumption); type: biochemical; conditions: read-out: AKT-1 IC50
Summary of the method: (§1)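 Activity is read as ATP depletion: luciferase-luciferin reagent added after a 3 h ambient-temperature kinase reaction, with total ATP use limited to 25-60%. Before ATP addition, 2.5-5 nM kinase and compound were preincubated 30 min in Tris pH 7.5/MgCl2/TX-100/DTT buffer; […].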

p70S6K = p70S6K (Homo sapiens, UniProt P23443); assay: as above; type: biochemical
Summary of the method: as §1

AktK, sequence (P31749 whole entry): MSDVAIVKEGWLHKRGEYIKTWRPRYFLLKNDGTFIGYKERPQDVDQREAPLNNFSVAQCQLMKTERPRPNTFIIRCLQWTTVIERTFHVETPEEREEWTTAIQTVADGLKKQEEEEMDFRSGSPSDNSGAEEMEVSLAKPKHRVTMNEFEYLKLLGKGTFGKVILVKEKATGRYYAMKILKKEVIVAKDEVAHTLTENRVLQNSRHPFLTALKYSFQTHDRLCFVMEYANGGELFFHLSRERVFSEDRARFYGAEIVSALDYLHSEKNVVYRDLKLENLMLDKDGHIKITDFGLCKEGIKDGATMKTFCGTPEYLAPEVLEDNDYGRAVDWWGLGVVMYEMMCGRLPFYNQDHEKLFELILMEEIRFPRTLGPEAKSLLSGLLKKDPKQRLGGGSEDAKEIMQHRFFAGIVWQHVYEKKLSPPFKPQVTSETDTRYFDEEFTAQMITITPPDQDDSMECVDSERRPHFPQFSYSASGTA
p70S6K, sequence (P23443 whole entry): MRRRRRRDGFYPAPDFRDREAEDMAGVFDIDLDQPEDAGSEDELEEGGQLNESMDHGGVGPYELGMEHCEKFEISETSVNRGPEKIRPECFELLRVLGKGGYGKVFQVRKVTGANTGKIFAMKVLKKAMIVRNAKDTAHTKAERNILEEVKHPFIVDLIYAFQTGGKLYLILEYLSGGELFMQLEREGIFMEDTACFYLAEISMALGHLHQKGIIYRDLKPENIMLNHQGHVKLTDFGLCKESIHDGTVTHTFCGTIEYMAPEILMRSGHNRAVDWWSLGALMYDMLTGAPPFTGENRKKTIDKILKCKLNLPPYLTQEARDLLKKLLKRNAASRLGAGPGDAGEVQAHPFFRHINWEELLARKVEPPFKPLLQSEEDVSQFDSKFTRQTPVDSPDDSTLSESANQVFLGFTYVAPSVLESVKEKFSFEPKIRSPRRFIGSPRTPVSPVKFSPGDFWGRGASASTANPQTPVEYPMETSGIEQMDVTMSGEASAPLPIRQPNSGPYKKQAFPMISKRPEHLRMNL

Compound	IC50 (AktK) [nM]	IC50 (p70S6K) [nM]	IC50 (AktK; Table 1, class symbols per key) [nM]	IC50 (p70S6K; Table 1, class symbols per key) [nM]
Fc1ccc(N2CCN(c3ncnc4[nH]ccc34)CC2)cc1 [Entry 312, 4-[4-(4-fluorophenyl)piperazin-1-yl]-7H-pyrrolo[2,3-d]pyrimidine]	≥ 10000	100 to 1000	–	–
FC(F)(F)c1cccnc1N1CCN(c2ncnc3[nH]nc(Br)c23)CC1 [Entry 135, 3-bromo-4-{4-[3-(trifluoromethyl)pyridin-2-yl]piperazin-1-yl}-1H-pyrazolo[3,4-d]pyrimidine]	–	–	≥ 10000	100 to 1000
N′-{3-[4-(3-bromo-1H-pyrazolo[3,4-d]pyrimidin-4-yl)piperazin-1-yl]-2-methyl-5-[(2-methyl-propyl)oxy]phenyl}-N,N-diethylethane-1,2-diamine [Entry 185]	–	–	< 100	< 100
Brc1n[nH]c2ncnc(N3CCN(c4cccc(OCCN5CCCCC5)c4)CC3)c12 [Entry 142, 3-bromo-4-(4-{3-[(2-piperidin-1-ylethyl)oxy]phenyl}piperazin-1-yl)-1H-pyrazolo[3,4-d]pyrimidine]	–	–	1000 to 10000	100 to 1000
FC(F)(F)c1cc(N2CCN(c3ncnc4[nH]nc(Br)c34)CC2)c2ccccc2n1 [Entry 109, 4-[4-(3-bromo-1H-pyrazolo[3,4-d]pyrimidin-4-yl)piperazin-1-yl]-2-(trifluoromethyl)quinoline]	–	–	≥ 10000	< 100
Cc1c(NCCN2CCCC2)cc(C(=O)NC(C)(C)C)cc1N1CCN(c2ncnc3[nH]nc(Br)c23)CC1 [Entry 214, 3-[4-(3-bromo-1H-pyrazolo[3,4-d]pyrimidin-4-yl)piperazin-1-yl]-N-(1,1-dimethylethyl)-4-methyl-5-[(2-pyrrolidin-1-ylethyl)amino]benzamide]	–	–	< 100	< 100
Cc1ccc(Cl)cc1N1CCN(c2ncnc3[nH]nc(Br)c23)CC1=O [Entry 183, 4-(3-bromo-1H-pyrazolo[3,4-d]pyrimidin-4-yl)-1-(5-chloro-2-methylphenyl)piperazin-2-one]	–	–	≥ 10000	< 100
COc1ccccc1N1CCN(c2ncnc3[nH]nc(Br)c23)CC1 [Entry 66, 3-bromo-4-{4-[2-(methyloxy)phenyl]piperazin-1-yl}-1H-pyrazolo[3,4-d]pyrimidine]	–	–	≥ 10000	< 100
COc1cc(OC)cc(N2CCN(c3ncnc4[nH]nc(Br)c34)CC2)c1 [Entry 80, 4-{4-[3,5-bis(methyloxy)phenyl]piperazin-1-yl}-3-bromo-1H-pyrazolo[3,4-d]pyrimidine]	–	–	1000 to 10000	< 100
N#Cc1nccnc1N1CCN(c2ncnc3[nH]nc(Br)c23)CC1 [Entry 110, 3-[4-(3-bromo-1H-pyrazolo[3,4-d]pyrimidin-4-yl)piperazin-1-yl]pyrazine-2-carbonitrile]	–	–	≥ 10000	100 to 1000
FC(F)(F)c1ccccc1N1CCN(c2ncnc3[nH]nc(Br)c23)CC1 [Entry 151, 3-bromo-4-{4-[2-(trifluoromethyl)phenyl]piperazin-1-yl}-1H-pyrazolo[3,4-d]pyrimidine]	–	–	≥ 10000	100 to 1000
Cc1c(NCCN2CCCC2)cc(CCC(C)(C)C)cc1N1CCN(c2ncnc3[nH]nc(Br)c23)CC1 [Entry 244, 3-[4-(3-bromo-1H-pyrazolo[3,4-d]pyrimidin-4-yl)piperazin-1-yl]-5-(3,3-dimethylbutyl)-2-methyl-N-(2-pyrrolidin-1-ylethyl)aniline]	–	–	< 100	< 100
Cc1c(NCCN(C)C)cc(OCC(F)(CF)CF)cc1N1CCN(c2ncnc3[nH]nc(Br)c23)CC1 [Entry 229, N′-(3-[4-(3-bromo-1H-pyrazolo[3,4-d]pyrimidin-4-yl)piperazin-1-yl]-5-{[2,3-difluoro-2-(fluorometh-yl)propyl]oxy}-2-methylphenyl)-N,N-dimethylethane-1,2-diamine]	–	–	< 100	< 100
O=[N+]([O-])c1ccc(N2CCN(c3ncnc4[nH]nc(Br)c34)CC2)cc1 [Entry 97, 3-bromo-4-[4-(4-nitrophenyl)piperazin-1-yl]-1H-pyrazolo[3,4-d]pyrimidine]	–	–	≥ 10000	100 to 1000
CCN1CCN(CCOc2cc(Cl)cc(N3CCN(c4ncnc5[nH]nc(C(F)(F)F)c45)CC3)c2C)CC1 [Entry 81, 4-[4-(5-chloro-3-{[2-(4-ethylpiperazin-1-yl)ethyl]oxy}-2-methylphenyl)piperazin-1-yl]-3-(trifluoromethyl)-1H-pyrazolo[3,4-d]pyrimidine]	–	–	100 to 1000	< 100
Cc1ccc(C(=O)Nc2ccccc2)cc1N1CCN(c2ncnc3[nH]nc(Br)c23)C[C@@H]1CO [Entry 200, 3-[(2R)-4-(3-bromo-1H-pyrazolo[3,4-d]pyrimidin-4-yl)-2-(hydroxymethyl)piperazin-1-yl]-4-methyl-N-phenylbenzamide]	–	–	< 100	< 100
CCc1cc(NCCN2CCCC2)c(C)c(N2CCN(c3ncnc4[nH]nc(Br)c34)CC2)c1 [Entry 245, 3-[4-(3-bromo-1H-pyrazolo[3,4-d]pyrimidin-4-yl)piperazin-1-yl]-5-ethyl-2-methyl-N-(2-pyrrolidin-1-ylethyl)aniline]	–	–	100 to 1000	< 100
CCc1ccccc1N1CCN(c2ncnc3[nH]nc(Br)c23)CC1 [Entry 105, 3-bromo-4-[4-(2-ethylphenyl)piperazin-1-yl]-1H-pyrazolo[3,4-d]pyrimidine]	–	–	≥ 10000	100 to 1000
CCc1n[nH]c2ncnc(N3CC4CC3CN4c3cccc(Cl)c3)c12 (stereo not shown) [Entry 344, 4-[5-(3-chlorophenyl)-2,5-diazabicyclo[2.2.1]hept-2-yl]-3-ethyl-1H-pyrazolo[3,4-d]pyrimidine]	1000 to 10000	< 100	–	–
Clc1cccc(N2CCN(c3ncnc4[nH]nc(Br)c34)CC2)c1Cl [Entry 150, 3-bromo-4-[4-(2,3-dichlorophenyl)piperazin-1-yl]-1H-pyrazolo[3,4-d]pyrimidine]	–	–	≥ 10000	100 to 1000
CON(C)C(=O)c1cc(NCCN2CCCC2)c(C)c(N2CCN(c3ncnc4[nH]nc(Br)c34)CC2)c1 [Entry 249, 3-[4-(3-bromo-1H-pyrazolo[3,4-d]pyrimidin-4-yl)piperazin-1-yl]-N,4-dimethyl-N-(methyloxy)-5-[(2-pyrrolidin-1-ylethyl)amino]benzamide]	–	–	100 to 1000	< 100
Cc1c(OCC2CCN(C)CC2)cc(Cl)cc1N1CCN(c2ncnc3[nH]nc(Br)c23)CC1 [Entry 88, 3-bromo-4-[4-(5-chloro-2-methyl-3-{[(1-methyl-piperidin-4-yl)methyl]oxy}phenyl)piperazin-1-yl]-1H-pyrazolo[3,4-d]pyrimidine]	–	–	< 100	< 100
Cc1ccc(Cl)cc1N1CCN(c2ncnc3[nH]nc(Br)c23)CC1 [Entry 329, 3-bromo-4-[4-(5-chloro-2-methylphenyl)piperazin-1-yl]-1H-pyrazolo[3,4-d]pyrimidine]	100 to 1000	< 100	–	–
COc1cc(NCCN2CCCC2)c(C)c(N2CCN(c3ncnc4[nH]nc(Br)c34)CC2)c1 [Entry 255, 3-[4-(3-bromo-1H-pyrazolo[3,4-d]pyrimidin-4-yl)piperazin-1-yl]-2-methyl-5-(methyloxy)-N-(2-pyrrolidin-1-ylethyl)aniline]	–	–	100 to 1000	< 100
6-(4-phenylpiperazin-1-yl)-9H-purine [Example 1]	–	–	1000 to 10000	1000 to 10000
Cc1c(NCCN2CCCC2)cc(C(=O)Nc2ccccc2)cc1N1CCN(c2ncnc3[nH]nc(Br)c23)CC1 [Entry 194, 3-[4-(3-bromo-1H-pyrazolo[3,4-d]pyrimidin-4-yl)piperazin-1-yl]-4-methyl-N-phenyl-5-[(2-pyrrolidin-1-ylethyl)amino]benzamide]	–	–	< 100	< 100
COc1cccc(N2CCN(c3ncnc4[nH]ccc34)CC2)c1 [Entry 303, 4-{4-[3-(methyloxy)phenyl]piperazin-1-yl}-7H-pyrrolo[2,3-d]pyrimidine]	≥ 10000	100 to 1000	–	–
CC(=O)c1ccc(N2CCN(c3ncnc4[nH]nc(Br)c34)CC2)cc1 [Entry 94, 1-{4-[4-(3-bromo-1H-pyrazolo[3,4-d]pyrimidin-4-yl)piperazin-1-yl]phenyl}ethanone]	–	–	1000 to 10000	100 to 1000
CCc1n[nH]c2ncnc(N3CCN(c4cccc(Cl)c4)C(C(=O)NCCN4CCOCC4)C3)c12 (stereo not shown) [Entry 383, 1-(3-chlorophenyl)-4-(3-ethyl-1H-pyrazolo[3,4-d]pyrimidin-4-yl)-N-(2-morpholin-4-ylethyl)piperazine-2-carboxamide]	≥ 10000	1000 to 10000	–	–
